Results from US20220372014A1, “NEUROPROTECTIVE COMPOUNDS AND METHODS OF USE THEREOF” (The Johns Hopkins University, priority 2019, published 2022).
“Also recorded” adds a separate entry of the source.

Tests used:
[1] = Measurement of compounds in brain after oral gavage (HPLC-MS); type: in vivo, C57BL/6 mice; conditions: oral gavage 10 mg/kg
Procedure: The concentrations of compounds in brain tissue were measured by LC/MS. […] Bars represent means±s.e.m. ***P<0.0005, two-way ANOVA followed by Tukey's post hoc test (n=3). […] Quantification of noncleaved substrate. Bars represent mean±s.e.m. ***P<0.0005, two-way ANOVA followed by Tukey's post hoc test (n=4). […] Intensity of noncleaved genomic DNA is shown in the graph. Bars represent mean±s.e.m. ***P<0.0005, two-way ANOVA followed by Tukey's post hoc test (n=4).
Measurement of compound 121 in brain. Compound 56, compound 77, and compound 121 were resuspended in a vehicle solution and were administered at 10 mg/kg by oral gavage. After 2 h, mice were perfused with PBS and whole brain was isolated, weighed and grounded with a pestle to a very fine powder with liquid nitrogen. Then, 2-folds of acetonitrile were added to brain tissue sample and the mixture was centrifuged at 14,000 rpm, 4° C. for 10 m. The supernatant was used for analysis. The concentration of compounds in brain tissue were measured using HPLC-MS on a C-18 reverse phase HPLC column. Separations were achieved using a linear gradient of buffer B from 40% to 95% in A (A=0.1% formic acid in H20; B=0.1% formic acid in CH3CN) at a flow rate of 1 ml/min. Intracerebroventricular (ICV) injected brain samples at 0.5, 1, 2, 4 or 8 μM concentration were used for the standard curve.

[2] = system: SH-SY5Y cells; experiment: Staurosporine (STS)-induced apoptotic cell death, Alamar blue; type: cell-based; conditions: 0.5 μM STS
Procedure: (§1) Graphs represent mean±s.e.m. ***P<0.0005, two-way ANOVA followed by Tukey's post hoc test (n=3). A PARP inhibitor, ABT-888 is used for the positive control. FIGS. 12B and 12C show in vitro oxidoreductase and tautomerase activity of MIF/PAAN with compound 41, 56, 76, or 77. FIGS. 12D and 12E show Alamar blue cell viability assay from SH-SY5Y cells pre-incubated with compound 41, 56, 76, or 77 in response to 0.5 μM staurosporine (STS) or from HT 22 cells incubated with 1 ng/ml of TNF-α with 50 μM z-VAD. A pan caspase inhibitor, z-VAD or necrostatin (Nec-1) is used for the positive control and PARP inhibitor, ABT-888 is used for negative control. Bars represent mean±s.e.m. ***P<0.0005, two-way ANOVA followed by Tukey's post hoc test (n=3). […] Bars represent mean±s.e.m. **P<0.005, ***P<0.0005, two-way ANOVA followed by Tukey's post hoc test (n=3).
(§2) FIGS. 14A-14G show the characterization of compound 121. […] Bars represent means±s.e.m. ***P<0.0005, two-way ANOVA followed by Tukey's post hoc test (n=4). […] Bars represent mean±s.e.m. ***P<0.0005, two-way ANOVA followed by Tukey's post hoc test (n=4). […] Bars represent means±s.e.m. **P<0.005, ***P<0.0005, one-way ANOVA followed by Tukey's post hoc test (n=3). […] Bar represent mean±s.e.m. ***P<0.0005, one-way ANOVA followed by Tukey's post hoc test (n=3). […] Quantification of inhibition of PARP-1 activity by compound 56, compound 121 and ABT-888 is shown. Graphs represent mean±s.e.m. ***P<0.0005, two-way ANOVA followed by Tukey's post hoc test (n=3). FIGS. 14F and 14G show Alamar blue cell viability assay from SH-SY5Y cells pre-incubated with either compound 56 or 121 in response to (14F) 0.5 μM staurosporine (STS) or (14G) from HT 22 cells incubated with 1 ng/ml of TNF-α with 50 μM z-VAD. Bars represent mean±s.e.m. ***P<0.0005, two-way ANOVA followed by Tukey's post hoc test (n=5).
(§3) Cell death and viability assessment. Primary cultured cortical neurons were treated with 5 μg/ml of α-syn PFF for 14 days and cell death was determined by staining of all nuclei with 7 μM Hoechst 33342 and dead cell nuclei with 2 μM propidium iodide (PI) (Invitrogen). The numbers of total and dead cells were counted with the Axiovision 4.6 software (Carl Zeiss). Cell viability was determined by fluorescence at an excitation wavelength 570 nm and an emission wavelength 585 nm using Alamar Blue (Invitrogen).

[3] = system: HT 22 cells; experiment: TNF-α and z-VAD-induced necroptosis, Alamar blue; type: cell-based; conditions: 1 ng/ml TNF-α with 50 μM z-VAD
Procedure: as §1, §2, §3

[4] = molecular target: T1, PAAN/MIF thiol-protein oxidoreductase activity (Homo sapiens, UniProt P14174); experiment: Oxidoreductase activity assay (insulin reduction); type: biochemical; conditions: 10 μM compounds
T1 construct: GST (N, cleaved yes); made in house; host or cells: Escherichia coli
T1 sequence (P14174 1-115): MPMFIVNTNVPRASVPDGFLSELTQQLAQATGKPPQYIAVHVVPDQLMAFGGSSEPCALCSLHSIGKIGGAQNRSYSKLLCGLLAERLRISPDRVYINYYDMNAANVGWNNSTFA
Procedure: Oxidoreductase activity assay. The thiol-protein oxidoreductase activity of PAAN/MIF was measured using insulin as the substrate as described previously. See Kudrin et al. (2006) J. Biol. Chem. 281:29641-51. Briefly, the insulin assay is based on the reduction of insulin and subsequent insolubilization of the insulin β-chain. The time-dependent increase in turbidity is then measured spectrophotometrically at 650 nm. The reaction was started by adding 5 μM PAAN/MIF WT in the presence or absence of 10 μM compounds (compounds 41, 56, 76, and 77) dissolved in 20 mM sodium phosphate buffer (pH 7.2), and 200 mM reduced glutathione (GSH) to ice-cold reaction mixture containing 1 mg/ml insulin, 100 mM sodium phosphate buffer (pH 7.2) and 2 mM EDTA. Insulin reduction was measured against the control solution (containing GSH) in the same experiment.

Row | SMILES | levels detected in the brain relative to compound 56 ([1]; 2 h) [fold] | staurosporine (STS)-induced apoptotic cell death [2] | TNFα and Z-VAD-induced necroptosis [3] | MIF's oxidoreductase activity [4] | concentration at 2 h ([1]; C57BL/6, mouse, brain, read-out: achievable concentration in brain) [nM] | ability to cross the blood brain barrier (BBB) ([1]; 2 h)
1 | COc1ccc(CC[C@H]2OC(=O)[C@@H]3CCCCN3C(=O)C(=O)C(C)(C)COC(=O)C=CCCN(C)C(=O)[C@@H]3CCCN3C(=O)[C@H](COC(C)(C)C)N(C)C(=O)C(c3ccccc3)NC(=O)[C@H](C)N(C)C(=O)COc3cc(F)cc2c3)cc1OC (mixture of isomers) [compound 121] | ~3 | failed to inhibit | failed to inhibit |  |  | 
2 | COc1ccc(CC[C@H]2OC(=O)[C@@H]3CCCCN3C(=O)C(=O)C(C)(C)COC(=O)C=CCCN(C)C(=O)[C@@H]3CCCN3C(=O)[C@H](COC(C)(C)C)N(C)C(=O)C(c3ccccc3)NC(=O)CN(C)C(=O)COc3cccc2c3)cc1OC (stereo partly drawn) [compound 41] |  | do not inhibit | not prevented | Neither did they inhibit |  | 
3 | COc1ccc(CC[C@H]2OC(=O)[C@@H]3CCCCN3C(=O)C(=O)C(C)(C)COC(=O)C=CCCN(C)C(=O)[C@@H]3CCCN3C(=O)[C@H](COC(C)(C)C)N(C)C(=O)C(c3ccccc3)NC(=O)[C@H](C)N(C)C(=O)COc3cccc2c3)cc1OC (stereo partly drawn) [compound 56] |  | do not inhibit; also recorded: failed to inhibit | not prevented; also recorded: failed to inhibit | Neither did they inhibit | < 500 | crossed the BBB
4 | COc1ccc(CC[C@H]2OC(=O)[C@@H]3CCCCN3C(=O)C(=O)C(C)(C)COC(=O)C=CCCN(C)C(=O)CNC(=O)[C@H](C(C)C)N(C)C(=O)[C@@H](Cc3ccccc3)NC(=O)[C@H](CC(C)C)N(C)C(=O)CCC(=O)Nc3cccc2c3)cc1OC [compound 76] |  | do not inhibit | not prevented | Neither did they inhibit |  | 
5 | COc1ccc(CC[C@H]2OC(=O)[C@@H]3CCCCN3C(=O)C(=O)C(C)(C)COC(=O)C=CCCN(C)C(=O)[C@H](C)NC(=O)[C@H](C(C)C)N(C)C(=O)[C@@H](Cc3ccccc3)NC(=O)[C@H](CC(C)C)N(C)C(=O)CCC(=O)Nc3cccc2c3)cc1OC [compound 77] |  | do not inhibit | not prevented | Neither did they inhibit |  | only compound 56 crossed the BBB
